Structures can show the parent of a compound that is named as a salt.
What was measured:
[1] = Conversion of monohydrate to tetrahydrate under ambient conditions, by XRPD; assay type: physicochemical; conditions: ambient temperature (35° C.) and relative humidity (60%)
Protocol: X-ray diffraction analyses (40 kv x 40 mA Rigaku D/max 2200) were performed under the conditions listed below: • Scan speed 5°/min or 20°/min • Sampling time 7 min or 2 min • Scan mode: continuous • 2θ/θ reflection • Cu target (Ni filter)

[2] = system: broad spectrum of microorganisms including antibiotic-resistant strains of Staphylococcus aureus, more particularly glycopeptide-resistant staphylococci; conditions: incl. antibiotic-resistant S. aureus; cited from earlier work
[3] = in vivo; cited from earlier work
[4] = Temperature/relative humidity-related stability (validated HPLC assay, XRPD); assay type: physicochemical
Text: 3 Sample batches of the compound were stored under the conditions of the study as stated in the table below. The assay was done by a validated HPLC method.

C[C@H]1CCc2c(N3CCC(O)CC3)c(F)cc3c(=O)c(C(=O)O)cn1c23.N=C(N)NCCC[C@H](N)C(=O)O [monohydrate, S-(−)-9-fluoro-6,7-dihydro-8-(4-hydroxypiperidin-1-yl)-5-methyl-1-oxo-1H,5H-benzo[i,j]quinolizine-2-carboxylic acid L-arginine salt]
Physical stability / moisture absorption [1]: highly unstable and rapidly absorbs moisture
Time until XRPD spectra change towards tetrahydrate [1]: ≤ 20 min

C[C@H]1CCc2c(N3CCC(O)CC3)c(F)cc3c(=O)c(C(=O)O)cn1c23.N=C(N)NCCC[C@H](N)C(=O)O [S-(−)-9-fluoro-6,7-dihydro-8-(4-hydroxypiperidin-1-yl)-5-methyl-1-oxo-1H,5H-benzo[i,j]quinolizine-2-carboxylic acid L-arginine salt]
Efficacy against microorganisms in mammals [2]: effective against a broad spectrum of microorganisms
Overall tolerability [3]: excellent overall tolerability

C[C@H]1CCc2c(N3CCC(O)CC3)c(F)cc3c(=O)c(C(=O)O)cn1c23 [S-(−)-9-fluoro-6,7-dihydro-8-(4-hydroxypiperidin-1-yl)-5-methyl-1-oxo-1H,5H-benzo[i,j]quinolizine-2-carboxylic acid L-arginine salt tetrahydrate]
HPLC assay on storage ([4]; 25° C./60% relative humidity, 3 months): 99.22%
HPLC assay on storage ([4]; 25° C./60% relative humidity, Initial): 99.31%
HPLC assay on storage ([4]; 40° C./75% relative humidity, 1 month): 99.30%
HPLC assay on storage ([4]; 40° C./75% relative humidity, 2 months): 99.25%
HPLC assay on storage ([4]; 40° C./75% relative humidity, 3 months): 99.27%
HPLC assay on storage ([4]; 40° C./75% relative humidity, Initial): 99.31%
Crystallinity on storage as seen by XRPD spectra ([4]; storage conditions of the stability study): underwent no changes
